Experimental data as given in ChEMBL document CHEMBL1201862, “PubChem BioAssay data set” (2004).
Active and inactive are the calls of the source. Rule as the data show it, for most assays here: actives have a measured IC50 and inactives only a lower limit.

Assays:
[1] = test system: Streptococcus sp. 'group A'; experiment: Streptococcus pyogenes SK(-)GAS viability under kanamycin – luminescence, BacTiterGlo, confirmation, counter-screen for streptokinase expression inhibitor project, dose response (AID 1900); type: functional, organism-based
Streptococcus = experiment: GAS UMAA2166 growth inhibition – luminescence, BacTiterGlo, counter-screen for streptokinase expression inhibitor project, dose response (AID 1915); type: functional, organism-based;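 also: potency for reduction of bacterial viability or growth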
Caspase-3 = target: T1, Caspase-3 (Homo sapiens, UniProt P42574); type: functional;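 also: Dose-response selectivity test against caspase-3 for candidate inhibitors of sentrin-specific proteases (SENPs)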
T1 sequence (P42574 whole entry): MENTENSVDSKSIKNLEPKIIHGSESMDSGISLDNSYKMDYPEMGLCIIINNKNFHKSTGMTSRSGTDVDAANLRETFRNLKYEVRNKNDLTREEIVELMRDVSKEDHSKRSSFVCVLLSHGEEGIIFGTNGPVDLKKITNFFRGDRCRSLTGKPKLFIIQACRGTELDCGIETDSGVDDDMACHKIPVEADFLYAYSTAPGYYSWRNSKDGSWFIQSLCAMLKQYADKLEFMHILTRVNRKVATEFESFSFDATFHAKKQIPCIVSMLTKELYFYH

[2] = target: T2, Sentrin-specific protease 7 (Homo sapiens, UniProt Q9BQF6); type: functional;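 also: Luminescence-based dose-response confirmation of ultra-high-throughput screening hits, measuring inhibition of SENP7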
T2 sequence (Q9BQF6 whole entry): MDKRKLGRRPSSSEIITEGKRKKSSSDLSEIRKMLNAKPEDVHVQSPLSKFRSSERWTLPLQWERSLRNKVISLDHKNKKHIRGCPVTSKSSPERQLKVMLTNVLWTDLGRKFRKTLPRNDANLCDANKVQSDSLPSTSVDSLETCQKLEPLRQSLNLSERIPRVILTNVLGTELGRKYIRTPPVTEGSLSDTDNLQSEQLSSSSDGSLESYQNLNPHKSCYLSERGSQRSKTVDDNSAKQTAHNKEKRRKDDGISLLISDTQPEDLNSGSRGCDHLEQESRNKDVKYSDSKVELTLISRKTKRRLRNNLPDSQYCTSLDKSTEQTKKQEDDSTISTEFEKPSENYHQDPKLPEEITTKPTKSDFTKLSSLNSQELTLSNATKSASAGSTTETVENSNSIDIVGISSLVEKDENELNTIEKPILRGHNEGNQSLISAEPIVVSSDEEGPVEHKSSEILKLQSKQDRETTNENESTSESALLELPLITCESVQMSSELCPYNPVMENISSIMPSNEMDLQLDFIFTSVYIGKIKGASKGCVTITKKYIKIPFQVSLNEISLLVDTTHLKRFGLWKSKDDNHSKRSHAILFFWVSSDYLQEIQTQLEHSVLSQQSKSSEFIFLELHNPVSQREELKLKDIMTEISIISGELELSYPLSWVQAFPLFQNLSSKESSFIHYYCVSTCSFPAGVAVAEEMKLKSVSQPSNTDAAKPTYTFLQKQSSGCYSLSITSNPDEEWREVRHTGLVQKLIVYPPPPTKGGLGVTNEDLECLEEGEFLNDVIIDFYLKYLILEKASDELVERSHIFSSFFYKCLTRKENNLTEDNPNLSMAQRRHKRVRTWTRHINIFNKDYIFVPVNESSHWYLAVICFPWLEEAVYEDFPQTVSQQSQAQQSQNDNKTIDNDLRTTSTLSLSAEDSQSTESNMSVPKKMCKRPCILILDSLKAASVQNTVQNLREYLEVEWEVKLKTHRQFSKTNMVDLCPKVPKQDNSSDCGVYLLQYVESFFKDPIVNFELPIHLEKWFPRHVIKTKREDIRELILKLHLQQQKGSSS

[3] = target: T3, Sentrin-specific protease 8 (Homo sapiens, UniProt Q96LD8); type: functional;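 also: luminescence read-out of SENP8 inhibition, dose-response confirmation following an ultra-high-throughput screen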
T3 sequence (Q96LD8 whole entry): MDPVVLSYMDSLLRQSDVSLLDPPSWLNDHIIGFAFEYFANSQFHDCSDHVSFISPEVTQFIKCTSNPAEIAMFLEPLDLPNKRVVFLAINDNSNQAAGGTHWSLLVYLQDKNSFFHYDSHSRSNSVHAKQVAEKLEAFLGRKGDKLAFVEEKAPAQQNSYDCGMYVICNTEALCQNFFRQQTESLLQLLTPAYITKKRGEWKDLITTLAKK

[4] = target: T4, Apoptotic protease-activating factor 1 (Homo sapiens, UniProt O14727); type: functional
T4 sequence (O14727 whole entry): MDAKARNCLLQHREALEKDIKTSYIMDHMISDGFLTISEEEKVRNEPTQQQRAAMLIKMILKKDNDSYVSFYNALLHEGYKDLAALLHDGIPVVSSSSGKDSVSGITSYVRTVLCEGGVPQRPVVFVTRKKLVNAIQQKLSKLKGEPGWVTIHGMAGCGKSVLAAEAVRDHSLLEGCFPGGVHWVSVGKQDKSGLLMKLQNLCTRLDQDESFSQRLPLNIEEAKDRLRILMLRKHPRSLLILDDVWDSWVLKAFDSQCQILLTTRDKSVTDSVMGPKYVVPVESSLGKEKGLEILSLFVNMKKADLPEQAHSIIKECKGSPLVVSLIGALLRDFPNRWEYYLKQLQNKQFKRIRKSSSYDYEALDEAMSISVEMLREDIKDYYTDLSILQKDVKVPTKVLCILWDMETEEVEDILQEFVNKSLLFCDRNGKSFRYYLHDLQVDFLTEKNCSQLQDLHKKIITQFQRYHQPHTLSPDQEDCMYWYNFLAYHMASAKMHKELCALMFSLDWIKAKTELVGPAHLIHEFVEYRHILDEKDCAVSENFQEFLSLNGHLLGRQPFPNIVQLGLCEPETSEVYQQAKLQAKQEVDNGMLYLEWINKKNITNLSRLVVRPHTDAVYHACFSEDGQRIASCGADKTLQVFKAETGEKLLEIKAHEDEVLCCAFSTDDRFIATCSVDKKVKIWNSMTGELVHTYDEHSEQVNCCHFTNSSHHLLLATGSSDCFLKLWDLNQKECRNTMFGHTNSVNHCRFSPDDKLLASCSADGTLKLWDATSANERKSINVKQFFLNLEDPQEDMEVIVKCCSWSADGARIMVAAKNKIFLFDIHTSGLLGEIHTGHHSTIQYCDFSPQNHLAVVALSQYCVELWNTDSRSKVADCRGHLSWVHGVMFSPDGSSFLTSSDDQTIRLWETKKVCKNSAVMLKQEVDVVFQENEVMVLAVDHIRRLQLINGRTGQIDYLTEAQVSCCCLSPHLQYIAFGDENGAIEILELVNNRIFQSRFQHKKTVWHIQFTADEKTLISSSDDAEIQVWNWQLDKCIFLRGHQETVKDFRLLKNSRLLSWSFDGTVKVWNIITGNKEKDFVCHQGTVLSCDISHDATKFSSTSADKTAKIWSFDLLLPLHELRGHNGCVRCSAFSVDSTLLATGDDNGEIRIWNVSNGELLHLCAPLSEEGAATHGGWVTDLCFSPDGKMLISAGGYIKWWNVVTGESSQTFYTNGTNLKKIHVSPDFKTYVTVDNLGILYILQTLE

O=C1C=C(Nc2ccccc2)c2ccccc2C1=O
active: EC50 [1] 1.77 µM | EC50 (Streptococcus) 8.86 µM | IC50 (Caspase-3) 18.6 µM | IC50 [2] 12.2 µM | IC50 [3] 9.45 µM | IC50 [4] 2.23 µM

O=C(Nc1ccccc1)c1nnsc1[S+]([O-])c1ccc(Cl)cc1 (configuration not stated)
active: EC50 [1] 2.11 µM | EC50 (Streptococcus) 3.79 µM

CC1OC(Nc2cccc3ccccc23)C(O)C(O)C1O (configuration not stated)
active: IC50 (Caspase-3) 9.4 µM | IC50 [2] 7.53 µM | IC50 [3] 6.06 µM | IC50 [4] 14.8 µM
